Values joined by “and” are separate entries in the source; they are usually repeats but may differ in a detail not shown here. Identical values can stand only once.
What was measured:
∆-hDAT T211H = molecular target: T1, ∆-hDAT T211H (Homo sapiens, UniProt Q01959, I248Y/T211H); assay: Zn2+ inhibition of [3H]dopamine uptake (IC50), T211H mutant; format: cell-based; settings: for T211H total: [3H]dopamine uptake raw counts, Fig 3c, triplicates, replicates 1-3
T1 construct: expressed in transfected cells; host or cells: HEK293 GnTI- cells, BacMam baculovirus transduction
T1 sequence (Q01959 57-620 T211H/I248Y limits assumed): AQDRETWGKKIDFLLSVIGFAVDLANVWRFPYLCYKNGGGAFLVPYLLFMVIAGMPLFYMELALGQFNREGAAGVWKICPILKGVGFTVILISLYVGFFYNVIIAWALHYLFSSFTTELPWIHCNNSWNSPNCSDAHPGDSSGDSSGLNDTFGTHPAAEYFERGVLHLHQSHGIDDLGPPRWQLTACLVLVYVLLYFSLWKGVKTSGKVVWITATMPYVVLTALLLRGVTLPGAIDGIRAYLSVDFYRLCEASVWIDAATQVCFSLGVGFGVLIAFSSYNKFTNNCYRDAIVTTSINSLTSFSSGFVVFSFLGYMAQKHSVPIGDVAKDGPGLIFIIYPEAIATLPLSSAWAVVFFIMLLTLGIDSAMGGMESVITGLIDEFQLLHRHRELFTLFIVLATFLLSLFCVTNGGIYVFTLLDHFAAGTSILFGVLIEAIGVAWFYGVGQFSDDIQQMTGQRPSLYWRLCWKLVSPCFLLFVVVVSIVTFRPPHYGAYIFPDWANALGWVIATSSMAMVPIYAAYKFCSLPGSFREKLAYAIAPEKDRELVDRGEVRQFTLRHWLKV
Description: (§1) For IC50 measurements of Zn^2+, uptake assays were carried out as described for MRS7292 with the following alterations. The uptake buffer contained EPPS at pH 8.5 in place of HEPES. Cells were washed once with uptake buffer containing 1 mM ethylenediaminetetraacetic acid (EDTA) to chelate ambient Zn^2+ from the cell growth medium, followed by second wash without EDTA. Cells were then incubated for 15 min in uptake buffers containing 0.3–300 µM added Zn^2+ for ∆-hDAT, 0.1–100 µM added Zn^2+ for T211H, and 0.03–30 µM added Zn^2+ for T211E. […] The IC50 of Zn^2+ for the T211E mutant was also measured at pH 7.5 to obtain a more complete inhibition curve.

∆-hDAT T211E = molecular target: T2, ∆-hDAT T211E (Homo sapiens, UniProt Q01959, I248Y/T211E); assay: Zn2+ inhibition of [3H]dopamine uptake (IC50), T211E mutant; format: cell-based; settings: for T211E total: [3H]dopamine uptake raw counts, Fig 3c, triplicates, replicates 1-3
T2 construct: expressed in transfected cells; host or cells: HEK293 GnTI- cells, BacMam baculovirus transduction
T2 sequence (Q01959 57-620 T211E/I248Y limits assumed): as the sequence (Q01959 57-620 T211H/I248Y limits assumed) above, with H155E counted along it
Description: as §1

hDAT D191N = settings: D191 mutated to asparagine; cited from earlier work
∆-hDAT [1] = molecular target: T3, ∆-hDAT (Homo sapiens, UniProt Q01959, I248Y); assay: Zn2+ inhibition of [3H]dopamine uptake (IC50), ∆-hDAT; format: cell-based; design: expressed in transfected cells; host or cells: HEK293 GnTI- cells, BacMam baculovirus transduction; settings: [3H]dopamine uptake raw counts, Fig 3c, triplicates, replicates 1-3
Description: as §1

∆-hDAT [2] = molecular target: T3, ∆-hDAT; settings: ∆-hDAT, HEK293 GnTI− cells, mean ± s.d., n = 3
Description: (§2) HEK293 GnTI^− cells were transduced with Δ-hDAT and full-length hDAT P2 viruses, propagated in SF9 cells using standard methods as described in ‘Protein expression and purification’, at a cell density of 2.5 – 3.0 × 10^6 cells per ml, followed by incubation at 37 °C for 6 h. After 6 h, sodium butyrate was added to a final concentration of 10 mM, and the cells were transferred to 30 °C with 8% CO2 for 6 h. The transduced cells were seeded into 96-well poly-D-lysine coated Isoplates (Perkin Elmer) at a density of 100,000 cells per well. The plates were then incubated at 30 °C for 12–16 h before the uptake assay was initiated. The cells were initially washed with 37 °C uptake assay buffer composed of 25 mM HEPES pH 7.4, 120 mM NaCl, 5 mM KCl, 1.2 mM CaCl2, 1.2 mM MgSO4, 5 mM D-glucose, 1 mM ascorbic acid, and 1 µM Ro 41-0960, followed by incubation in 50 µl of the same buffer for 10 min. Replicates with 10 µM of GBR12909 in the uptake assay buffer were used to measure background. […] The uptake reaction was stopped by adding 100 µl of chilled inhibition buffer, uptake assay buffer supplemented with 2.5 µM GBR12909. Two consecutive washes with 100 µl of inhibition buffer were carried out, followed by resuspension of cells in 100 µl of 1% Triton X-100. Finally, 100 µl of liquid scintillation cocktail was added to each well and [^3H] counts were measured using a MicroBeta2 (Perkin Elmer). Background counts from three replicates were averaged and subtracted from total counts.

full-length hDAT = full-length hDAT (Homo sapiens, UniProt Q01959); settings: full-length hDAT, HEK293 GnTI− cells, mean ± s.d., n = 3
Description: as §2

∆-hDAT [3] = molecular target: T3, ∆-hDAT; assay: Scintillation proximity assay (SPA), [3H]WIN35428 binding to purified His-tagged ∆-hDAT; design: expressed in transfected cells; host or cells: HEK293 GnTI- cells, BacMam baculovirus transduction; settings: β-CFT 0.617 nM, background not subtracted
Description: The various buffer systems were unchanged. YSi-Cu SPA beads at 1 mg ml^−1 were added to ∆-hDAT (30 nM) in SEC buffer (0.02% digitonin, 0.002% CHS, 50 mM HEPES pH 7.8, 200 mM NaCl, 25 µM POPC and 4 µM MRS7292). [^3H]-WIN35428 (82.8 Ci mmol^−1) in 20 mM HEPES pH 7.8 and 100 mM NaCl was used at concentration points ranging from 0 to 150 nM. For background measurement, 100 µM of GBR12909 was added to the assay buffer. Reactants were added to a 96-well isoplate, briefly mixed on a shaker at room temperature, and [^3H] counts were recorded using a MicroBeta2. […] Background subtracted counts were plotted and analysed by a single-site binding model via nonlinear regression analysis in GraphPad Prism v7.05.

hDAT W84C = settings: W84C mutant; cited from earlier work
[4] = substrate: NCCc1ccc(O)c(O)c1; assay: cells, lysate or membranes; settings: HEK293 GnTI− cells, Michaelis–Menten model, mean ± s.d., n = 3, pH 7.4

In the case of `[Zn+2]` [Zn^2+], the T211H total (∆-hDAT T211H; Added Zn2+ 0.14 µM) is reported as 2307 and 2405 and 2334 and 1111 and 679 and 946 and 2428 and 2969 and 2868, the T211H total (∆-hDAT T211H; Added Zn2+ 0.41 µM) is reported as 1917 and 1650 and 1702 and 922 and 890 and 993 and 2213 and 1804 and 1794 and the T211H total (∆-hDAT T211H; Added Zn2+ 1.23 µM) is reported as 1146 and 1389 and 1404 and 571 and 540 and 534 and 1806 and 1414 and 1274. For the same molecule, the T211H total (∆-hDAT T211H; Added Zn2+ 3.70 µM) was 951 and 892 and 809 and 316 and 317 and 411 and 837 and 824 and 1109, the T211H total (∆-hDAT T211H; Added Zn2+ 11.11 µM) was 810 and 577 and 717 and 230 and 281 and 267 and 486 and 515 and 477 and the T211H total (∆-hDAT T211H; Added Zn2+ 33.33 µM) was 528 and 524 and 546 and 246 and 210 and 198 and 441 and 462 and 475. The T211H total (∆-hDAT T211H; Added Zn2+ 100.00 µM) was 419 and 394 and 350 and 158 and 145 and 163 and 252 and 226 and 267, the “IC50 of Zn2+ lower than that of ∆-hDAT” value (∆-hDAT T211H; T211H mutant, [3H]dopamine uptake, pH 8.5) was ~20 fold and the T211E total (∆-hDAT T211E; Added Zn2+ 0.0457 µM) was 1043 and 1084 and 946 and 1214 and 1350 and 1252 and 1437 and 1516 and 1325. The T211E total (∆-hDAT T211E; Added Zn2+ 0.14 µM) was 623 and 609 and 563 and 777 and 766 and 728 and 853 and 1009 and 867, the T211E total (∆-hDAT T211E; Added Zn2+ 0.41 µM) was 635 and 450 and 501 and 372 (2×) and 389 and 527 and 516 and 677 and the T211E total (∆-hDAT T211E; Added Zn2+ 1.23 µM) was 459 and 447 and 440 and 286 and 276 and 244 and 481 and 403 (2×). The T211E total (∆-hDAT T211E; Added Zn2+ 3.70 µM) was 335 and 268 and 302 and 159 and 217 and 381 and 284 and 246 and 231, the T211E total (∆-hDAT T211E; Added Zn2+ 11.11 µM) was 323 and 314 and 345 and 238 and 249 and 229 and 277 and 278 and the T211E total (∆-hDAT T211E; Added Zn2+ 33.33 µM) was 416 and 290 and 362 and 261 and 242 and 215 and 342 and 313 and 301. For the same molecule, the “IC50 of Zn2+ lower than that of ∆-hDAT” value (∆-hDAT T211E; T211E mutant, [3H]dopamine uptake, pH 8.5) was “around 100 fold”, the “decrease in apparent Zn2+ affinity” value (hDAT D191N) was “apparent threefold decrease” and the Δ-hDAT total counts (∆-hDAT [1]; Added Zn2+ 0.41 µM) was 3458 counts and 3089 counts and 3357 counts and 3017 counts and 2960 counts and 2624 counts and 3155 counts and 3308 counts and 3482 counts. For the same molecule, the Δ-hDAT total counts (∆-hDAT [1]; Added Zn2+ 1.23 µM) was 3105 counts and 3118 counts and 3175 counts and 2225 counts and 1943 counts and 2195 counts and 3616 counts and 3027 counts and 2892 counts, the Δ-hDAT total counts (∆-hDAT [1]; Added Zn2+ 3.70 µM) was 1979 counts and 2178 counts and 2228 counts and 2099 counts and 1947 counts and 1866 counts and 2321 counts and 2149 counts and 1943 counts and the Δ-hDAT total counts (∆-hDAT [1]; Added Zn2+ 11.11 µM) was 2029 counts and 1818 counts and 1787 counts and 1695 counts and 1560 counts and 1477 counts and 1550 counts and 1703 counts and 2026 counts. The Δ-hDAT total counts (∆-hDAT [1]; Added Zn2+ 33.33 µM) was 1238 counts and 1123 counts and 1240 counts and 1063 counts and 1147 counts and 906 counts and 1573 counts and 1503 counts and 1606 counts, the Δ-hDAT total counts (∆-hDAT [1]; Added Zn2+ 100.00 µM) was 771 counts and 681 counts and 793 counts and 660 counts and 598 counts and 682 counts and 1221 counts and 1015 counts and 885 counts and the Δ-hDAT total counts (∆-hDAT [1]; Added Zn2+ 300.00 µM) was 402 counts and 451 counts and 435 counts and 386 counts and 349 counts and 353 counts and 418 counts and 427 counts.

For `NCCc1ccc(O)c(O)c1` [[^3H]dopamine, dopamine], the “reaction rate at infinite substrate concentration (Vmax) for [3H]dopamine uptake” value (∆-hDAT [2]) was 342.8 ± 11.7 fmol min^−1 per well and the “reaction rate at infinite substrate concentration (Vmax) for [3H]dopamine uptake” value (full-length hDAT) was 190.9 ± 10.7 fmol min^−1 per well.

For `COC(=O)C1C(c2ccc(F)cc2)CC2CCC1N2C` (single isomer, unassigned; (-)) [β-CFT, (–)-2-β-carbomethoxy-3-β-(4-fluorophenyl)tropane], the “SPA total counts, binding to purified ∆-hDAT” value (∆-hDAT [3]) was 204 and 169 and 192 and 177 and 171 and 174 and 189 and 179.

In the case of `CCc1ccc2[nH]c3nc(SCCNS(=O)(=O)c4ccc(NC(C)=O)cc4)nnc3c2c1` [KM822], the “effect of mutation on potency of KM822” value (hDAT W84C) is listed as “increases the potency”.

B1: full-length hDAT (Homo sapiens) (protein)
chain: MSKSKCSVGLMSSVVAPAKEPNAVGPKEVELILVKEQNGVQLTSSTLTNPRQSPVEAQDRETWGKKIDFLLSVIGFAVDLANVWRFPYLCYKNGGGAFLVPYLLFMVIAGMPLFYMELALGQFNREGAAGVWKICPILKGVGFTVILISLYVGFFYNVIIAWALHYLFSSFTTELPWIHCNNSWNSPNCSDAHPGDSSGDSSGLNDTFGTTPAAEYFERGVLHLHQSHGIDDLGPPRWQLTACLVLVIVLLYFSLWKGVKTSGKVVWITATMPYVVLTALLLRGVTLPGAIDGIRAYLSVDFYRLCEASVWIDAATQVCFSLGVGFGVLIAFSSYNKFTNNCYRDAIVTTSINSLTSFSSGFVVFSFLGYMAQKHSVPIGDVAKDGPGLIFIIYPEAIATLPLSSAWAVVFFIMLLTLGIDSAMGGMESVITGLIDEFQLLHRHRELFTLFIVLATFLLSLFCVTNGGIYVFTLLDHFAAGTSILFGVLIEAIGVAWFYGVGQFSDDIQQMTGQRPSLYWRLCWKLVSPCFLLFVVVVSIVTFRPPHYGAYIFPDWANALGWVIATSSMAMVPIYAAYKFCSLPGSFREKLAYAIAPEKDRELVDRGEVRQFTLRHWLKV
With B1 the Km ([4]; other: full-length hDAT) was 0.56 ± 0.13 µM.

B2: ∆-hDAT (Homo sapiens; I248Y) (protein)
chain: AQDRETWGKKIDFLLSVIGFAVDLANVWRFPYLCYKNGGGAFLVPYLLFMVIAGMPLFYMELALGQFNREGAAGVWKICPILKGVGFTVILISLYVGFFYNVIIAWALHYLFSSFTTELPWIHCNNSWNSPNCSDAHPGDSSGDSSGLNDTFGTTPAAEYFERGVLHLHQSHGIDDLGPPRWQLTACLVLVYVLLYFSLWKGVKTSGKVVWITATMPYVVLTALLLRGVTLPGAIDGIRAYLSVDFYRLCEASVWIDAATQVCFSLGVGFGVLIAFSSYNKFTNNCYRDAIVTTSINSLTSFSSGFVVFSFLGYMAQKHSVPIGDVAKDGPGLIFIIYPEAIATLPLSSAWAVVFFIMLLTLGIDSAMGGMESVITGLIDEFQLLHRHRELFTLFIVLATFLLSLFCVTNGGIYVFTLLDHFAAGTSILFGVLIEAIGVAWFYGVGQFSDDIQQMTGQRPSLYWRLCWKLVSPCFLLFVVVVSIVTFRPPHYGAYIFPDWANALGWVIATSSMAMVPIYAAYKFCSLPGSFREKLAYAIAPEKDRELVDRGEVRQFTLRHWLKV
For B2, the Km ([4]; other: ∆-hDAT) was 0.55 ± 0.07 µM.
